The values below come from article PMC5458252, “Niclosamide is a potential therapeutic for familial adenomatosis polyposis by disrupting Axin-GSK3 interaction” (Oncotarget, 2017).

The Kd is a measure of binding affinity in units of concentration.

The test has as its target T1, GSK3β (Homo sapiens, UniProt P49841).
T1 construct: gene GSK3B; His-tagged recombinant GSK3β from sf9 insect cells
As to the kind of experiment: SPR (ProteOn XPR36, immobilized recombinant GSK3β); supported by competition with FITC-Axin peptide (AFF assay). The test is classed as binding. An excerpt: SPR (ProteOn XPR36, immobilized recombinant GSK3β); supported by competition with FITC-Axin peptide (AFF assay) on GSK3β | wild type Axin peptide or niclosamide directly binds to GSK3, the equilibrium dissociation constant yielding a KD

T1 sequence (P49841 whole entry): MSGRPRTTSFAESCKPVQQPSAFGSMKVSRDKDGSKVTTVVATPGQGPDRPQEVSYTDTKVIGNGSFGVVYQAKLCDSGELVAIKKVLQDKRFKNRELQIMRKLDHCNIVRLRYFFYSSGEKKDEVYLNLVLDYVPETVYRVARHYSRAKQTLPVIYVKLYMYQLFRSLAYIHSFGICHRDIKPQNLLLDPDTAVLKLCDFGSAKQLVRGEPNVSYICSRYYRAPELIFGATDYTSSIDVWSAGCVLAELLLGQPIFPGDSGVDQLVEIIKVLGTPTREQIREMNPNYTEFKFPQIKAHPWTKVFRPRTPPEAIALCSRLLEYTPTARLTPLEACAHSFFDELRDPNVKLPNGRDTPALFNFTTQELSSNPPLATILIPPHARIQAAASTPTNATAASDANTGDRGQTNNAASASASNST

Turning to `O=C(Nc1ccc([N+](=O)[O-])cc1Cl)c1cc(Cl)ccc1O` [Niclosamide], the Kd is 34.5 µM.
